Results as given in PubChem BioAssay (NCI).
Values joined by “and” are separate entries in the source; they are usually repeats but may differ in a detail not shown here. Identical values can stand only once.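 Each compound was tested at five concentrations against cells in 96-well plates for 48 hours. GI50 is the concentration that inhibits growth by half. The concentration for full growth arrest is given as TGI.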 Active and inactive are the calls of the source. Cut-off read from the data, not from the text of the source: active = GI50 below about 0.43 µM; inactive = the rest.

Columns and labels:
Experiment in all cases: growth of human tumour cells (NCI), 48 h
786-0 renal = system: 786-0 renal
CAKI-1 renal = system: CAKI-1 renal
K-562 leukemia = system: K-562 leukemia
RPMI-8226 leukemia = system: RPMI-8226 leukemia
SK-MEL-2 melanoma = system: SK-MEL-2 melanoma
SK-OV-3 ovarian = system: SK-OV-3 ovarian
UO-31 renal = system: UO-31 renal
MCF7 breast = system: MCF7 breast
T-47D breast = system: T-47D breast

SMILES | TGI (786-0 renal) | TGI (CAKI-1 renal) | TGI (K-562 leukemia) | TGI (RPMI-8226 leukemia) | TGI (SK-MEL-2 melanoma) | TGI (SK-OV-3 ovarian) | TGI (UO-31 renal) | GI50 (786-0 renal) | GI50 (CAKI-1 renal) | GI50 (K-562 leukemia) | GI50 (MCF7 breast) | TGI (MCF7 breast) | GI50 (RPMI-8226 leukemia) | GI50 (SK-MEL-2 melanoma) | GI50 (SK-OV-3 ovarian) | GI50 (T-47D breast) | TGI (T-47D breast) | GI50 (UO-31 renal) | outcome (MCF7 breast) | outcome (T-47D breast)
CS/C(=N\C(=S)N(C)C)N(c1ccccc1)c1nc(=[N+](C)C)ss1 | 39.3 µM | 80.2 µM | 12.5 µM | 6.24 µM | 36.6 µM | > 100 µM | > 100 µM |  |  |  |  |  |  |  |  |  |  |  |  | 
COc1ccc(C2CC(=O)c3c(O)cc(O)cc3O2)cc1O (stereo not given) | > 100 µM | > 100 µM | > 100 µM | > 100 µM | > 100 µM | > 100 µM | > 100 µM |  |  |  |  |  |  |  |  |  |  |  |  | 
CC(=O)N[C@@H](Cc1ccc(OP(=O)(O)O)cc1)C(=O)N[C@H]1CCC(=O)N2CCC[C@@H](C(=O)NCc3ccc(Cl)cc3)N2C1=O | > 25 µM | > 25 µM | > 25 µM | > 25 µM | > 25 µM | > 25 µM | > 25 µM | > 25 µM | > 25 µM | > 25 µM | > 25 µM | > 25 µM | > 25 µM | > 25 µM | > 25 µM | > 25 µM | > 25 µM | > 25 µM |  | 
CCN1CCN(Cc2ccc(-c3cc4c(N[C@H](C)c5ccccc5)ncnc4[nH]3)cc2)CC1 | 8.93 µM and 7.74 µM | 3.17 µM and > 10 µM | 12.4 µM and > 10 µM | 13.4 µM and 6.94 µM | 17.4 µM and > 10 µM | 11.1 µM | 8.95 µM and > 10 µM | 2.02 µM and 1.91 µM | 0.252 µM and 1.27 µM | 0.49 µM and 0.626 µM | 2.78 µM and 2.68 µM | 15.9 µM and > 10 µM | 3.54 µM and 2.13 µM | 4.86 µM and > 10 µM | 0.299 µM | 1.36 µM and 0.765 µM | 19.2 µM and > 10 µM | 0.37 µM and 0.542 µM |  | 
CCCCON(OC(=O)c1ccccc1)C(=O)c1ccccc1 | > 100 µM | > 100 µM | > 100 µM | > 100 µM | > 100 µM | > 100 µM | > 100 µM | > 100 µM | > 100 µM | 93.4 µM | > 100 µM | > 100 µM | > 100 µM | > 100 µM | > 100 µM | > 100 µM | > 100 µM | > 100 µM |  | 
CN(C)c1ccc2c(=O)c3ccccc3oc2n1 | > 100 µM | > 100 µM | > 100 µM | > 100 µM | > 100 µM | > 100 µM | > 100 µM |  |  |  |  |  |  |  |  |  |  |  |  | 
COc1ccccc1NC(=O)c1sc2nc3c(cc2c1N)C(=O)CCC3 | > 100 µM |  | > 100 µM | > 100 µM | > 100 µM | > 100 µM |  | 4.05 µM |  | 1.53 µM | 4.8 µM | > 100 µM | > 100 µM | 1.81 µM | 3.59 µM | > 100 µM | > 100 µM |  |  | 
Clc1ccc(CSC(Cn2ccnc2)c2ccc(Cl)cc2Cl)cc1 (stereo not given) | 3.13 µM | 4.05 µM | 4.81 µM | 4.49 µM | 3 µM | 3.91 µM | 4.48 µM | 1.61 µM | 1.55 µM | 2 µM | 1.6 µM | 2.99 µM | 1.38 µM | 1.52 µM | 1.7 µM | 0.999 µM | 2.76 µM | 1.38 µM |  | 
CC12CCC3C(CCC4Cc5[nH]c6ccccc6c5CC43C)C1CCC2O (stereo not given) |  | > 100 µM |  | 4.52 µM | > 100 µM | > 100 µM | > 100 µM | 0.835 µM | 0.791 µM |  | 0.373 µM | > 100 µM | 1.13 µM | 4.28 µM | 2.81 µM | 2.3 µM | > 100 µM | 4.37 µM |  | 
COc1ccccc1/C=C(\C#N)c1ccccc1 | 42.5 µM | > 100 µM | 33.8 µM | > 100 µM | 94.8 µM | 84.3 µM | 97.5 µM |  |  |  |  |  |  |  |  |  |  |  |  | 
CN1C(=O)CC(c2cccc(C3CC(=O)N(C)C3=O)n2)C1=O (stereo not given) | > 100 µM | > 100 µM | > 100 µM |  | > 100 µM | > 100 µM | > 100 µM |  |  |  |  |  |  |  |  |  |  |  |  | 
FC(F)(F)Oc1cccc(-c2cnc3ccc(-c4ccncc4)nn23)c1 | > 100 µM | 4.11 µM | > 100 µM | 4.84 µM |  | 2.11 µM | 4.77 µM | 1.75 µM | 0.417 µM | 3.49 µM | 1.56 µM | 6.12 µM | 1.31 µM |  | 0.392 µM | 0.571 µM | 4.26 µM | 0.708 µM |  | 
COc1cc2c(cc1O)CC[C@@H]1[C@@H]2CC[C@]2(C)[C@@H](NCCN(C)C)CC[C@@H]12 | 0.831 µM | 0.945 µM | 0.395 µM | 0.665 µM | 0.517 µM | 0.667 µM | 0.889 µM | 0.383 µM | 0.464 µM | 0.0886 µM | 0.127 µM | 0.514 µM | 0.159 µM | 0.127 µM | 0.194 µM |  |  | 0.43 µM |  | 
Cc1ccccc1NC(=O)C(=O)C(C#N)c1ccc(Cl)cc1 (stereo not given) | > 100 µM | > 100 µM | > 100 µM | 48.8 µM | > 100 µM | > 100 µM | > 100 µM |  |  |  |  |  |  |  |  |  |  |  |  | 
COc1ccc2oc(=O)cc(C(c3ccc[nH]3)c3ccc[nH]3)c2c1 | 11.5 µM | 13.1 µM | 20.8 µM | 3.64 µM | 13.2 µM |  | 11.9 µM | 0.281 µM |  | 0.118 µM | 0.108 µM | 14.5 µM | 0.376 µM | 0.616 µM |  | 0.118 µM | 26.6 µM | 0.127 µM |  | 
CCOc1ccccc1NC(=O)CC1C(=O)Nc2ccccc2S1=O (stereo not given) | > 100 µM | > 100 µM | > 100 µM | 46.1 µM | > 100 µM |  | > 100 µM |  |  |  |  |  |  |  |  |  |  |  |  | 
COC(=O)CCC(=O)C(=O)OC |  |  |  | 51200 µM | 41400 µM | 62000 µM | 85700 µM | 33000 µM |  | 33500 µM |  |  | 17200 µM | 19700 µM | 11700 µM |  |  | 15000 µM | inactive | inactive
CCCCCCCCCCCCNC(C)=O | 32.5 µM | 39.3 µM |  | 30.7 µM | 28.1 µM | 29.1 µM | 46.9 µM |  |  |  |  | 32.4 µM |  |  |  |  | 66.3 µM |  |  | 
